Results on 4 compounds are retold here after article PMC8288134, “Synthesis, potential antitumor activity, cell cycle analysis, and multitarget mechanisms of novel hydrazones incorporating a 4-methylsulfonylbenzene scaffold: a molecular docking study” (Journal of Enzyme Inhibition and Medicinal Chemistry, 2021).

Like-named read-outs stand apart in the source and are kept apart here.

For one series, the system named is SN12C. Put plainly: NCI antitumor screen (SRB). Type of series: cell-based. Conditions: Homo sapiens.
For another series, the system named is HCC-2998. Put plainly: NCI antitumor screen (SRB). Conditions: Homo sapiens. Type of series: cell-based.
Series [1] concerns NCI-H522. The series is described as follows: NCI antitumor screen (SRB). Type of series: cell-based. Conditions: Homo sapiens, NCI-H522.
In the next series the test system is KM12. Put plainly: NCI antitumor screen (SRB). Type of series: cell-based. Conditions: Homo sapiens.
The next series relates to A549/ATCC. The series is described as follows: NCI antitumor screen (SRB). The class given is cell-based. Conditions: Homo sapiens.
Another series addresses T1, COX-2 (Ovis aries, UniProt P79208).
T1 construct: purchased Cayman Chemical 560101
T1 sequence (P79208 17-603): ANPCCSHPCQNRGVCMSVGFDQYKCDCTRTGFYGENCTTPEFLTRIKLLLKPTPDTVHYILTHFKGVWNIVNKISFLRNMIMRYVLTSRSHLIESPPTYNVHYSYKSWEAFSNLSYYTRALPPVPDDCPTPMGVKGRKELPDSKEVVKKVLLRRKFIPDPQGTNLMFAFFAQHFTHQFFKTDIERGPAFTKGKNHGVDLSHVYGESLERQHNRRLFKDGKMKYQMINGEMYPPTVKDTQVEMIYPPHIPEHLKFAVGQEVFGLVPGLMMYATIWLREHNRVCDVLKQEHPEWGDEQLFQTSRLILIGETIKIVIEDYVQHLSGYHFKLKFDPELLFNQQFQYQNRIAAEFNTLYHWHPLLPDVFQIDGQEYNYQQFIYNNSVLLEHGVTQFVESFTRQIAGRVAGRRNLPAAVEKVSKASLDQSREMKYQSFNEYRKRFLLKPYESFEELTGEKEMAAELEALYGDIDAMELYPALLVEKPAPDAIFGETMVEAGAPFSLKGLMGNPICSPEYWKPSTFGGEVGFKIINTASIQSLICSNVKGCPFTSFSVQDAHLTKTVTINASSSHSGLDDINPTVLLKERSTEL
Put plainly: biochemical. The conditions noted are these: mean of three determinations; read-out: IC50 COX-2 Inhibition. As for the experimental part: had been previously attached to the well. The plate was washed to remove any unbound reagents, and then Ellman’s reagent, containing the substrate of acetylcholine esterase, was added to the well. This enzymatic reaction produced a distinct yellow color that was absorbed in 410 nm. The intensity of the color, determined spectrophotometrically, was proportional to the amount of PG tracer bound to the well, which was inversely proportional to PGs present in the well during the incubation: Absorbance ∝ [Bound PG Tracer] a1/PGs. Percent inhibition was calculated by comparing the treated compound to various control incubations. The test compound […]
inhibition response curve (duplicate determinations). […]

A further series relates to MDA-MB-231/ATCC. The series is described as follows: NCI antitumor screen (SRB). The conditions noted are these: Homo sapiens. Type of series: cell-based.
In a further series the test system is HCT-116. Put plainly: NCI antitumor screen (SRB). Type of series: cell-based. Conditions: Homo sapiens.
Another series relates to UACC-62. Put plainly: NCI antitumor screen (SRB). The class given is cell-based. The conditions noted are these: Homo sapiens.
In a further series the test system is NCI-H23. The series is described as follows: NCI antitumor screen (SRB). Conditions: Homo sapiens. The class given is cell-based.
A further series deals with OVCAR-5. The series is described as follows: NCI antitumor screen (SRB). The class given is cell-based. Conditions: Homo sapiens.
The test system of a further series is TK-10. The series is described as follows: NCI antitumor screen (SRB). Type of series: cell-based. The conditions noted are these: Homo sapiens, one dose 10 µM, read-out: Growth inhibition percentage (GI%).
In a further series the test system is M14. The series is described as follows: NCI antitumor screen (SRB). The class given is cell-based. Conditions: Homo sapiens.
A further series deals with NCI-H322M. Put plainly: NCI antitumor screen (SRB). The class given is cell-based. The conditions noted are these: Homo sapiens.
In the next series the test system is HOP-62. Put plainly: NCI antitumor screen (SRB). The class given is cell-based. The conditions noted are these: Homo sapiens, HOP-62.
A further series deals with OVCAR-8. The series is described as follows: NCI antitumor screen (SRB). The class given is cell-based. Conditions: Homo sapiens.
For a further series, the system named is SNB-19. Also on record: method as in https://dtp.cancer.gov/dtpstandard/dwindex/index.jsp. The conditions noted are these: reference drugs, ref https://dtp.cancer.gov/dtpstandard/dwindex/index.jsp; cited from earlier work.
A further series relates to OVCAR-4. Also on record: method as in https://dtp.cancer.gov/dtpstandard/dwindex/index.jsp. Conditions: reference drugs, ref https://dtp.cancer.gov/dtpstandard/dwindex/index.jsp; cited from earlier work.
The test system of series [2] is NCI-H522. Also on record: method as in https://dtp.cancer.gov/dtpstandard/dwindex/index.jsp. The conditions noted are these: reference drugs, ref https://dtp.cancer.gov/dtpstandard/dwindex/index.jsp; cited from earlier work.
The subject of the next series is NCI/ADR-RES. Also on record: method as in https://dtp.cancer.gov/dtpstandard/dwindex/index.jsp. Conditions: reference drugs, ref https://dtp.cancer.gov/dtpstandard/dwindex/index.jsp; cited from earlier work.
A further series concerns EKVX. Also on record: method as in https://dtp.cancer.gov/dtpstandard/dwindex/index.jsp. The conditions noted are these: reference drugs, ref https://dtp.cancer.gov/dtpstandard/dwindex/index.jsp; cited from earlier work.
The subject of the next series is K-562. Details: method as in https://dtp.cancer.gov/dtpstandard/dwindex/index.jsp. Conditions: reference drugs, ref https://dtp.cancer.gov/dtpstandard/dwindex/index.jsp; cited from earlier work.
For another series, the system named is HOP-92. Details: method as in https://dtp.cancer.gov/dtpstandard/dwindex/index.jsp. The conditions noted are these: reference drugs, ref https://dtp.cancer.gov/dtpstandard/dwindex/index.jsp; cited from earlier work.
The subject of series [3] is NSC lung cancer tumour cell lines. The conditions noted are these: cited from earlier work; for GI50: read-out: GI50 (subpanel average), reference drugs, ref https://dtp.cancer.gov/dtpstandard/dwindex/index.jsp; for TGI (subpanel average): reference drugs, ref https://dtp.cancer.gov/dtpstandard/dwindex/index.jsp.
For another series, the system named is MALME-3M. Also on record: method as in https://dtp.cancer.gov/dtpstandard/dwindex/index.jsp. Conditions: reference drugs, ref https://dtp.cancer.gov/dtpstandard/dwindex/index.jsp; cited from earlier work.
For the next series, the system named is SK-MEL-28. Details: method as in https://dtp.cancer.gov/dtpstandard/dwindex/index.jsp. The conditions noted are these: reference drugs, ref https://dtp.cancer.gov/dtpstandard/dwindex/index.jsp; cited from earlier work.
The test system of series [4] is breast cancer tumour cell lines. Conditions: cited from earlier work; for GI50: read-out: GI50 (subpanel average), reference drugs, ref https://dtp.cancer.gov/dtpstandard/dwindex/index.jsp.
The subject of the next series is CAKI-1. Also on record: method as in https://dtp.cancer.gov/dtpstandard/dwindex/index.jsp. The conditions noted are these: reference drugs, ref https://dtp.cancer.gov/dtpstandard/dwindex/index.jsp; cited from earlier work.
The subject of a further series is IGROV1. Details: method as in https://dtp.cancer.gov/dtpstandard/dwindex/index.jsp. The conditions noted are these: reference drugs, ref https://dtp.cancer.gov/dtpstandard/dwindex/index.jsp; cited from earlier work.
Series [5] relates to full panel of 59 cancer cell lines. Conditions: cited from earlier work; for GI50: read-out: GI50 MG-MID (full panel mean-graph midpoint), reference drugs, ref https://dtp.cancer.gov/dtpstandard/dwindex/index.jsp; for TGI MG-MID (full panel mean-graph midpoint): reference drugs, ref https://dtp.cancer.gov/dtpstandard/dwindex/index.jsp.
Another series concerns RXF 393. Details: method as in https://dtp.cancer.gov/dtpstandard/dwindex/index.jsp. The conditions noted are these: reference drugs, ref https://dtp.cancer.gov/dtpstandard/dwindex/index.jsp; cited from earlier work.
The mark [6] stands for this setting: five concentrations 0.01-100 µM.
The mark [7] stands for this setting: one dose 10 µM, read-out: Growth inhibition percentage (GI%).
Where [8] appears, read: read-out: LC50 (subpanel average), reference drugs, ref https://dtp.cancer.gov/dtpstandard/dwindex/index.jsp.

Take `CCN(CC)c1ccc(/C=N/NC(=O)c2ccc(S(C)(=O)=O)cc2)c(O)c1` [Compound 20]: the GI50 is 0.354 µM in the series with SN12C (setting [6]); 0.301 µM in the series on HCC-2998 (setting [6]); 0.395 µM with NCI-H522 [1] (setting [6]); 0.404 µM in the series on KM12 (setting [6]); 0.402 µM in the series with A549/ATCC (setting [6]); 0.308 µM in the series on MDA-MB-231/ATCC (setting [6]). Also, the GI50 with HCT-116 is 0.121 µM; in the series with UACC-62 (setting [6]), 0.234 µM; in the series with NCI-H23 (setting [6]) it was 0.446 µM; in the series with OVCAR-5 (setting [6]), 6.48 µM; in the series on M14 (setting [6]), 0.171 µM; in the series on NCI-H322M (setting [6]), 0.228 µM. Further, the results for the GI50 in the series with HOP-62 (setting [6]) and with OVCAR-8 (setting [6]) were 0.085 µM and 0.25 µM, respectively. For the same compound, the inhibition at 10 µM came out at 68.8% in the series with SN12C (setting [7]); 60.4% with HCC-2998 (setting [7]); 90.1% in the series with NCI-H522 [1] (setting [7]); 74.1% with KM12 (setting [7]); 87.5% in the series with A549/ATCC (setting [7]); 56.8% in the series with MDA-MB-231/ATCC (setting [7]). The inhibition at 10 µM is 81.6% in the series on HCT-116 (read-out: Growth inhibition percentage (GI%)); more than 100% with UACC-62 (setting [7]); 67.2% in the series with NCI-H23 (setting [7]); 67.5% in the series with OVCAR-5 (setting [7]); 69.5% with TK-10; 96.6% with M14 (setting [7]). Also, the results for the inhibition at 10 µM with NCI-H322M (setting [7]), in the series on HOP-62 (setting [7]) and with OVCAR-8 (setting [7]) were 75%, 87.1% and 83.2%, respectively. The IC50 on COX-2 was 6.94 ± 0.41 µM.

Regarding `C#Cc1cccc(Nc2ncnc3cc(OCCOC)c(OCCOC)cc23)c1` [Erlotinib, erlotinib], the GI50 in the series on SNB-19 is 12.6 µM; in the series with OVCAR-4, 10 µM; in the series with NCI-H522 [2] it was 1 µM; in the series on NCI/ADR-RES, 7.94 µM; in the series with EKVX, 0.199 µM; in the series on K-562, 31.6 µM. The GI50 was 3.98 µM with HOP-92; 13.1 µM in series [3]; 1.58 µM in the series with MALME-3M; 50.1 µM in the series with SK-MEL-28; 24.7 µM in series [4]; 0.199 µM in the series on CAKI-1. Besides, the GI50 in the series with IGROV1 was 0.316 µM; in [5], 7.68 µM; with RXF 393, 3.98 µM. Further, the CC50 in series [3] (setting [8]) is 97.7 µM; in series [4] (setting [8]), 96.4 µM; in [5] (read-out: LC50 MG-MID (full panel mean-graph midpoint), reference drugs, ref https://dtp.cancer.gov/dtpstandard/dwindex/index.jsp) it was 95.6 µM. Also, the “TGI (subpanel average)” value in series [3] is recorded as 73.76 µM. Further, the “TGI MG-MID (full panel mean-graph midpoint)” value in [5] is listed as 66.3 µM.

For the compound `COc1cc2ncnc(Nc3ccc(F)c(Cl)c3)c2cc1OCCCN1CCOCC1` [Gefitinib, gefitinib], the GI50 is 3.16 µM with SNB-19; 1 µM in the series on NCI-H522 [2]; 1.26 µM in the series with NCI/ADR-RES; 2.51 µM in the series with K-562; 0.316 µM in the series on HOP-92; 2.05 µM in series [3]. Besides, the GI50 with MALME-3M is 3.98 µM; with SK-MEL-28, 3.16 µM; in series [4] it was 4.67 µM; in the series on IGROV1, 3.16 µM; in [5], 2.1 µM; in the series with RXF 393 it was 3.16 µM. Besides, the “TGI (subpanel average)” value in series [3] is 13.86 µM; in [4] (reference drugs, ref https://dtp.cancer.gov/dtpstandard/dwindex/index.jsp) it was 18.62 µM. For the same compound, the “TGI MG-MID (full panel mean-graph midpoint)” value in [5] is given as 14.3 µM.

In the case of `CS(=O)(=O)c1ccc(C(=O)Nc2ccc(Cl)c(-c3ccccn3)c2)c(Cl)c1` [Vismodegib, vismodegib], the GI50 was 63.1 µM in the series with SNB-19; 39.8 µM in the series on OVCAR-4; 25.1 µM with NCI-H522 [2]; 31.6 µM with NCI/ADR-RES; 39.8 µM in the series with EKVX; 31.6 µM with K-562. Also, the GI50 in the series on HOP-92 was 25.1 µM; with MALME-3M, 39.8 µM; in the series on SK-MEL-28 it was 39.8 µM; with CAKI-1 it was 79.4 µM; with IGROV1, 100 µM; in the series on RXF 393, 25.1 µM.
